Results published in US9605283B2, “Microorganism modified for the production of 1,3-propanediol” (INSTITUT NATIONAL DES SCIENCES APPLIQUÉES, priority 2012, dated 2017).
Numbering of substitutions follows the chain as printed. Blank lines part the entries; values can stand above or below the compound they belong to.

Legend:
Assay type in all cases: biochemical
[1] = molecular target: T1, Zymomonas mobilis pyruvate decarboxylase Zm-Pdc variant W392L, SEQ ID No. 192 (Zymomonas mobilis, UniProt P06672, W392L); test: OHB decarboxylase / pyruvate decarboxylase kinetics, Zm-Pdc W392L; settings: 37° C., pH 7, coupled to yeast alcohol dehydrogenase/NADH; read-out: Km (natural substrate, pyruvate)
T1 sequence (P06672 1-568 W392L): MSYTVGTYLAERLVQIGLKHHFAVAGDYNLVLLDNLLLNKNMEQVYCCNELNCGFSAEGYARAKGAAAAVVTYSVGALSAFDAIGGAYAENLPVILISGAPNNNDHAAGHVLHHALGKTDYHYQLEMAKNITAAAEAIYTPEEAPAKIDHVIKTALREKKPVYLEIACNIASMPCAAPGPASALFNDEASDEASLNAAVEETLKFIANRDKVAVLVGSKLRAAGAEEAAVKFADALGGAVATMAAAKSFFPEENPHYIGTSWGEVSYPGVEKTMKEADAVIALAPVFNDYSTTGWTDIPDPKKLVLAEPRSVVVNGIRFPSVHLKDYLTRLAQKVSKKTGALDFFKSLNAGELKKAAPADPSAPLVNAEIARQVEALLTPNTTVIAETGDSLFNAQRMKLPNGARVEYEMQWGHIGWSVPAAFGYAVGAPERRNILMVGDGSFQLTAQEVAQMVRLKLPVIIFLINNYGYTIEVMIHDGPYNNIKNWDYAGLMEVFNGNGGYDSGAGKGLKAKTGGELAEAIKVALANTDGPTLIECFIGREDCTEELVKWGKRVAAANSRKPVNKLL
Protocol: (§1) OHB decarboxylase activity was assayed by coupling the decarboxylase activity to the NADPH-dependent reduction of the released 3-hydroxypropanal by purified aldehyde reductase, YqhD, from E. coli. The decarboxylation of pyruvate was coupled to the NADH-dependent reduction of acetaldehyde catalysed by yeast alcohol dehydrogenase. Branched-chain alpha-ketoacid decarboxylase activity was measured on 4-methyl-2-oxovaleric acid by coupling to the NADH-dependent reduction of 3-methylbutanal catalysed by horse liver alcohol dehydrogenase. […] Reactions were started by adding 20 mM 2-oxo-4-hydroxybutyrate (OHB), 10 mM 4-methyl-2-oxovaleric acid (MOV), or 5 mM pyruvate.
(§2) Site-directed mutagenesis of the L. lactis kdcA and the Z. mobilis Pdc genes was carried out using the oligonucleotide pairs listed in Table 9 and the pET28-Ll-kdcA and pET28-Zm-Pdc plasmids, respectively, as the template.
(§3) Mutant enzymes were expressed, purified and tested for OHB decarboxylase, pyruvate decarboxylase and MOV decarboxylase activity as described in Example 4.

[2] = molecular target: T2, Zymomonas mobilis pyruvate decarboxylase Zm-Pdc variant G413N, SEQ ID No. 194 (Zymomonas mobilis, UniProt P06672, G413N); test: OHB decarboxylase / pyruvate decarboxylase kinetics, Zm-Pdc G413N; settings: 37° C., pH 7, coupled to yeast alcohol dehydrogenase/NADH; read-out: Km (natural substrate, pyruvate)
T2 sequence (P06672 1-568 G413N): T1 sequence (P06672 1-568 W392L) with L392W, G413N
Protocol: as §1, §2, §3

[3] = molecular target: T3, Escherichia coli malate dehydrogenase Ec-Mdh variant R81A I12V, SEQ ID No. 162 (Escherichia coli, UniProt P61889, I12V/R81A); test: DHB dehydrogenase / malate dehydrogenase kinetics, Ec-Mdh R81A I12V; settings: read-out: Km (DHB); 37° C., pH 8, 10 mM NAD
T3 sequence (P61889 1-312 I12V/R81A): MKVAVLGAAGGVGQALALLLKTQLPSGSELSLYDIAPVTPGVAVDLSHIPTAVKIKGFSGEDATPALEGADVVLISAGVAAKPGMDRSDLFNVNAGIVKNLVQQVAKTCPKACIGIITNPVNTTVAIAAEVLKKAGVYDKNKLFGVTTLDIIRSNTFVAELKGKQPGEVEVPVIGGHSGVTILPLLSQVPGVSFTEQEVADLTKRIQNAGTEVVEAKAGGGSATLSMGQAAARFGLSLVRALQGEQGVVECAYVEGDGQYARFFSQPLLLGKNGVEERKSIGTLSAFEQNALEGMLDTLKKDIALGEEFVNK
Protocol: (§4) Activity of the cytosolic DHB dehydrogenases (Ec-Mdh, Bs-Mdh, Ll-LdhA) was assayed by following the DHB-dependent reduction of NAD^+.
(§5) The reaction mixture contained 60 mM Hepes (pH 8), 50 mM potassium chloride, 5 mM MgCl2, 10 mM NAD, (optionally, 5 mM fructose-1,6-bisphosphate (F16bP)) (all products from Sigma), and appropriate amounts of purified enzyme or cell extract. Reactions were started by adding 50 mM (L)-2,4-dihydroxybutyrate (Rhodia).
All enzymatic assays were carried out at 37° C. in 96-well flat bottomed microtiter plates in a final volume of 250 μL.

[4] = molecular target: T4, Escherichia coli malate dehydrogenase Ec-Mdh variant R81A G179D, SEQ ID No. 168 (Escherichia coli, UniProt P61889, G179D/R81A); test: DHB dehydrogenase kinetics, Ec-Mdh R81A G179D; settings: 37° C., pH 8, 10 mM NAD
T4 sequence (P61889 1-312 R81A/G179D): T3 sequence (P61889 1-312 I12V/R81A) with V12I, G179D
Protocol: Site-directed mutagenesis of the E. coli mdh and the B. subtilis mdh genes were carried out using the oligonucleotide pairs listed in Table 3 and the pET28-Ec-mdh and the pET28-Bs-mdh plasmids as the templates. Point mutations to change the amino acid sequence were introduced by PCR (Phusion 1U, HF buffer 20% (v/v), dNTPs 0.2 mM, direct and reverse primers 0.04 μM each, template plasmid 50 ng, water) using the oligonucleotide pairs listed in Table 3. Mutated genes contained a new restriction site listed in Table 3 (introduced using silent mutations) in addition to the functional mutation to facilitate identification of mutated clones. The PCR products were digested by DpnI at 37° C. for 1 h to remove template DNA, and transformed into competent E. coli DH5-alpha cells (NEB). The mutated plasmids were identified by restriction site analysis and verified to carry the desired mutations by DNA sequencing.
Mutant enzymes were expressed, purified and tested for DHB dehydrogenase activity as described in Example 1.
The mutation R81A in Ec-Mdh (by reference to SEQ ID No. 124) was combined with additional changes in the protein sequence.

[5] = DHB dehydrogenase activity of cytosolic enzymes (DHB-dependent reduction of NAD+)
Protocol: as §4, §5
All enzymatic assays were carried out at 37° C. in 96-well flat bottomed microtiter plates in a final volume of 250 μL. The reactions were followed by the characteristic absorption of NADH at 340 nm (εNADH=6.22 mM^−1 cm^−1) or the absorbtion of DCIP at 655 nm (εDCIP=5.9 mM^−1 cm^−1) in a microplate reader (BioRad 680XR).

[6] = Malate dehydrogenase activity (natural substrate)

Compound: CC(=O)C(=O)O [pyruvate]
- Km [1]: > 50 mM
- Km [2]: > 50 mM

Compound: O=C(O)[C@@H](O)CCO [DHB, (L)-2,4-dihydroxybutyrate]
- Km [3]: > 100 mM
- Km [4]: > 100 mM

- maximum activity on DHB ([5]; text of Example 2): 0 µmol/mg/min
- activity on malate ([6]; text of Example 2): 10.9 µmol/mg/min
Compound: Bs-Mdh: (L)-malate dehydrogenase of Bacillus subtilis, wild-type, SEQ ID No. 126
- DHB dehydrogenase activity (in words) ([5]; cytosolic wild-type enzymes): no measurable DHB dehydrogenase activity
- Max. specific activity, DHB ([5]; when not saturated, activity estimated at 50 mM substrate, Table 2): 0 µmol/mg/min
- Max. specific activity, Natural substrate ([6]; natural substrate (L)-malate, Table 2): 10.5 µmol/mg/min
